For 28 compounds, TGI and GI50 results are on record in PubChem BioAssay (NCI).

Where “and” joins values, the source holds several entries; their conditions need not be identical. Equal values may be shown once.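 Following 48 hours of exposure in 96-well plates, responses at five concentrations were used to interpolate endpoints linearly. GI50: concentration for 50% inhibition of growth. At the TGI there is no net growth.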 Bounds are passed on as bounds.

Holding throughout (assay): inhibition of tumour cell growth, NCI panel, 48 h
Experiment [1] concerns DMS 273 small cell lung.
For experiment [2], the system named is SK-MEL-5 melanoma.
Experiment [3] deals with SF-268 CNS.
Experiment [4] relates to K-562 leukemia.
For experiment [5], the system named is UACC-257 melanoma.
Experiment [6] relates to SNB-75 CNS.
Experiment [7] relates to HOP-92 NSCLC.
Experiment [8] has as its system A549 NSCLC.
Experiment [9] concerns SF-539 CNS.
Experiment [10] deals with XF 498 CNS.

Consider `COCCOCOC(C)(C)[C@H](CCOC(C)=O)O[Si](c1ccccc1)(c1ccccc1)C(C)(C)C`, for which the TGI in [1] is 26.3 µM; in experiment [2], 23.7 µM; in experiment [3], over 100 µM; in experiment [4], 28.8 µM; in experiment [5], 31.1 µM; in experiment [6] it was over 100 µM. In addition, the TGI in experiment [7] is 27.9 µM; in experiment [8], over 100 µM.
Regarding `NC(=O)C12CC3CC(CC(Br)(C3)C1)C2`, the TGI in [1], in experiment [2], in experiment [3], in experiment [9], in [5] and in experiment [10] was over 100 µM each time. For the same compound, the TGI in experiment [6], in experiment [7] and in experiment [8] was over 100 µM each time.
Regarding `O=[N+]([O-])c1ccc2c(Nc3ccccc3-c3ccccc3Nc3c4ccccc4nc4cc([N+](=O)[O-])ccc34)c3ccccc3nc2c1`, the TGI in [1] is over 82.9 µM; in experiment [2] it was 8.09 µM; in experiment [3], 49.8 µM; in [9] it was 39.5 µM; in experiment [4] it was 15.5 µM; in experiment [5], 49.8 µM. The TGI in experiment [10] is 4.98 µM; in [6] it was 34.5 µM; in [7], 24.4 µM; in experiment [8] it was over 56.2 µM.
Take `COC/N=C(/N)NC#N`: the TGI in [1] was 91.5 µM; in experiment [2], over 100 µM; in [3] it was over 100 µM; in [9], over 100 µM; in experiment [4], over 100 µM; in [5] it was over 100 µM. Besides, the TGI in experiment [6], in experiment [7] and in [8] was over 100 µM each time.
Take `C/C(=C\Cc1cc(O)ccc1O)CCc1c(C)c(O)c(O)c(C=O)c1C`: the TGI in experiment [1] is 74.6 µM; in [2] it was 30.2 µM; in experiment [3], 68.5 µM; in [9], 42.1 µM; in [4], over 100 µM; in experiment [10], 48.8 µM. For the same compound, the TGI in experiment [6] is over 100 µM; in experiment [7], 34.7 µM; in [8], 92.8 µM.
As for `COc1ccc(Cc2nc3ccccc3s2)cc1OC`, the TGI in experiment [1] was 29.2 µM; in [2] it was 30.1 µM; in experiment [3], 29.5 µM; in [9] it was 31.2 µM; in [4] it was 49.6 µM; in experiment [5], 32.9 µM. Further, the TGI in experiment [10] was found to be 28.8 µM; in experiment [6] it was 36.8 µM; in experiment [7], 36.5 µM; in experiment [8] it was 61.8 µM.
For the compound `COc1cc(/C=C\c2ccncc2)cc(OC)c1OC`, the TGI in experiment [1], in [2], in [3], in experiment [9], in experiment [4] and in experiment [5] was over 100 µM each time. Besides, the TGI in experiment [10], in [6], in experiment [7] and in experiment [8] was over 100 µM each time.
With `COC(=O)/C(C#N)=C1\CCc2ccccc21`, the TGI in experiment [1], in experiment [2], in [3], in experiment [9], in experiment [4] and in experiment [5] was over 100 µM each time. Moreover, the TGI in experiment [10], in experiment [6], in experiment [7] and in experiment [8] was over 100 µM each time.
As for `Cc1cc(C)nc(NS(=O)(=O)c2ccc(NC(=O)c3cccn4c(=O)c5ccccc5nc34)cc2)n1`, the TGI in experiment [1], in experiment [2], in experiment [3], in experiment [9], in experiment [4] and in experiment [10] was over 100 µM throughout. For the same compound, the TGI in experiment [6] and in experiment [8] was over 100 µM in each case.
Regarding `COC(=O)C#CCC1CCCC1C1SCCS1` (stereo not drawn), the TGI in experiment [1], in [2], in [3], in experiment [9], in experiment [4] and in experiment [5] was over 100 µM in each case. Also, the TGI in experiment [10], in experiment [6], in [7] and in experiment [8] was over 100 µM throughout.
`CCN(CC)CCCC(C)Nc1c(Sc2cnc3cc(Cl)ccc3c2NC(C)CCCN(CC)CC)cnc2cc(Cl)ccc12` (stereo not drawn): the TGI in [1] worked out at 3.17 µM; in [3], 3.83 µM; in experiment [4], 3.7 µM; in experiment [5], 3.49 µM; in experiment [6], 2.98 µM; in experiment [7], 4.07 µM. In experiment [8], this compound had a TGI of 3.24 µM.
For the compound `CC1=NN(C(=O)c2ccc(Cl)cc2)C(=O)/C1=C/c1ccc(Cl)cc1`, the TGI in experiment [2], in experiment [3], in experiment [9], in experiment [4], in [5] and in experiment [10] was over 100 µM in each case. Further, the TGI in experiment [7] and in experiment [8] was over 100 µM throughout.
As to `CCCCc1c2c(nc3c1CCc1cc4cc5c(nc4nc1-3)-c1nc3c(c(CCCC)c1CC5)CCC/C3=C\c1ccccc1)/C(=C/c1ccccc1)CCC2`, the TGI in [1], in experiment [3], in [9], in [4], in [5] and in [6] was over 100 µM throughout. The compound further yielded a TGI in experiment [8] of over 100 µM.
With `C#C[C@H]1CCCCCC1O` (stereo partly drawn), the TGI in experiment [1], in experiment [2], in [3], in experiment [9], in experiment [4] and in experiment [5] was over 100 µM throughout. For the same compound, the TGI in experiment [10], in [6], in experiment [7] and in experiment [8] was over 100 µM throughout.
Take `CC(=O)Nc1ccc(C(=O)NN2C(=O)C(Cl)C2c2ccc(O)cc2)cc1` (stereo not drawn): the TGI in experiment [1], in experiment [2], in experiment [3], in experiment [9], in experiment [4] and in experiment [5] was over 100 µM throughout. The TGI in [10], in experiment [6] and in [8] was over 100 µM each time.
As for `COC1(C)C(=O)N2C1N(C(=O)OCc1ccccc1)CC2(C)C` (stereo not drawn), the TGI in experiment [1], in [2], in [3], in [9], in experiment [4] and in experiment [5] was over 100 µM throughout. Also, the TGI in experiment [10], in experiment [6] and in [8] was over 100 µM throughout.
On to `COc1cccc2c1[C@H]1CO[C@H]3C4C[C@H](C(=O)O)C([C@@H](C2)N13)N4C` (stereo partly drawn), for which the GI50 in experiment [1] was 516 nM; in [2] it was 588 nM; in experiment [3], 1130 nM; in [9], 684 nM; in experiment [4], 397 nM; in [5] it was 703 nM. Also, the GI50 was 632 nM in [10], 809 nM in experiment [6], 684 nM in experiment [7] and 10.1 µM in experiment [8]. Further, the TGI in experiment [1] is 1.31 µM; in experiment [2] it was 4.31 µM and 1.23 µM; in [3], 7.43 µM and > 32 µM; in experiment [9], 2.62 µM and 2.04 µM; in experiment [5] it was 5.15 µM and 1.81 µM; in experiment [10] it was 4.19 µM and 1.5 µM. The TGI in [6] was 4.85 µM and 3.53 µM; in experiment [7], 4.55 µM and 3.22 µM; in [8], 99 µM.
For `CC(=O)NNc1nc(C)c(C(=O)/C=C/c2ccc(/C=C/C(=O)c3sc(NNC(C)=O)nc3C)cc2)s1`, the TGI in [1], in experiment [3], in [9], in experiment [4], in [5] and in experiment [10] was over 100 µM throughout. The TGI in experiment [8] is over 100 µM.
Turning to `O=C(COc1ccc(Cl)cc1)N1CCN(C(=O)COc2ccc(Cl)cc2)c2ccccc21`, the TGI in [1], in experiment [3], in experiment [9], in experiment [4], in experiment [5] and in experiment [10] was over 100 µM throughout. Further, the TGI in experiment [6], in experiment [7] and in [8] was over 100 µM each time.
Regarding `Nc1ccc(C(=O)NN2C(=O)C(Cl)C2c2cccc(O)c2)cc1` (stereo not drawn), the TGI in experiment [1] worked out at 23.3 µM; in experiment [2], 31.7 µM; in experiment [3], 17 µM; in experiment [9], 31.6 µM; in [4] it was 44.5 µM; in experiment [5] it was 41.7 µM. The TGI was 56.1 µM in experiment [6], 35.4 µM in experiment [7] and 39.3 µM in [8].
In the case of `Cn1nnc2c(C(N)=O)ncn2c1=O`, the TGI in experiment [2], in experiment [3], in [9], in experiment [4], in [5] and in experiment [10] was over 100 µM each time. Moreover, the TGI in experiment [6], in experiment [7] and in [8] was over 100 µM throughout.
For the compound `O=C(CCc1nc(=S)[nH][nH]1)Nc1cccc(C(F)(F)F)c1`, the TGI in experiment [1], in [2], in [3], in [9], in [4] and in experiment [5] was over 100 µM throughout. Further, the TGI in [10], in [6], in [7] and in experiment [8] was over 100 µM throughout.
Regarding `CCC[CH2][Sn]([CH2]CCC)([O]C(=O)/C=C/c1ccccc1F)[O]C(=O)/C=C/c1ccccc1F`, the GI50 is 1160 nM in experiment [1]; 985 nM in experiment [2]; 526 nM in experiment [3]; 1270 nM in experiment [9]; 232 nM in experiment [4]; 465 nM in experiment [5]. Further, the GI50 was 258 nM in [10], 692 nM in experiment [6], 415 nM in experiment [7] and 1.88 µM in [8]. The TGI in [1] was determined as 2.93 µM; in experiment [2], 2.31 µM; in experiment [3], 1.84 µM; in experiment [9] it was 2.56 µM; in [4], 1.4 µM; in experiment [5], 1.76 µM. Besides, the TGI in experiment [10] is 0.892 µM; in [6] it was 2.06 µM; in experiment [7], 1.37 µM; in experiment [8] it was 3.91 µM.
On to `CCCCCCCCCCCCCP(=O)(NCC(N)=O)OCC` (stereo not drawn), for which the TGI in experiment [2] amounted to 35.3 µM; in experiment [3], 38.4 µM; in experiment [9], 31.3 µM; in experiment [5] it was 36.1 µM; in [10] it was 34.9 µM; in experiment [6], 19.9 µM. The TGI in [7] is 31.1 µM; in experiment [8], 40.7 µM.
Regarding `N#CC(C#N)=C(N)/C(C#N)=C/c1ccc2[nH]ccc2c1`, the TGI in experiment [1], in [2], in [3], in experiment [9], in experiment [4] and in [5] was over 100 µM throughout. The TGI in [6], in [7] and in experiment [8] was over 100 µM each time.
Turning to `O=C(NCC(=O)N1CCOC1=O)OCc1ccccc1`, the TGI in experiment [1], in [2], in [3], in experiment [9], in [4] and in [5] was over 100 µM in each case. The TGI in [10], in [6], in experiment [7] and in experiment [8] was over 100 µM throughout.
Take `Cc1ccc(NC(=O)CC2SC(N)=NC2=O)cc1C` (stereo not drawn): the TGI in [3], in experiment [9], in experiment [4], in experiment [5], in experiment [10] and in [6] was over 100 µM each time. Further, the TGI in experiment [7] and in [8] was over 100 µM each time.
Regarding `Nc1ccc(C(=O)N/C(=C\c2cccc([N+](=O)[O-])c2)c2nc3ccc(Cl)cc3[nH]2)cc1`, the TGI in experiment [2] was over 100 µM; in [3], over 100 µM; in experiment [9], over 100 µM; in [4], over 100 µM; in experiment [10], over 100 µM; in experiment [7], 75.8 µM. This compound returned a TGI in [8] of over 100 µM.
